Experimental findings from article PMC10970924 (Life, 2024) are described below.

For orientation: EC50 means the concentration that produces a half-maximal response. Broadly, the melting point is the temperature, or range, at which the solid turns liquid. A word on the IC50: it is the concentration at which inhibition is half-maximal. Low values mean greater potency in that assay, high ones weaker potency in that assay.

Series [1] is described as follows: Neutralization of the ABTS radical. As to conditions: for EC50: 37 °C, 15 min, 738 nm, read-out: EC50 of half-maximal ABTS radical inhibition; for Trolox Equivalent Antioxidant Capacity (TEAC): ABTS radical neutralization, relative to Trolox. As to the method: Initially, an ABTS solution was prepared in water at a concentration of 7 mM. Subsequently, the radical cation ABTS^•+ was generated by mixing the original ABTS solution with 2.45 mM ammonium persulfate at a 1:1 ratio. This mixture was then allowed to stand in the dark at room temperature for 12–16 h before use. The diluted ABTS^•+ solution was prepared in a methanol/water mixture (1:1) reaching an optical density of 0.7 units at 738 nm (~0.7 mM). Next, various concentrations of compounds (ranging from 1000, 500, 250, 125, 62.5, 31.2, 15.6, to 7.8 μM) in a volume of 130 µL in a methanol/water mixture (1:1) were mixed with the ABTS radical cation solution (~0.7 mM) in a volume of 130 µL. The mixture was then incubated at 37 °C in a water bath for 15 min. The optical density was measured at 738 nm using the Infinite M200 PRO (TECAN, Zürich, Switzerland) plate reader. The percentage inhibition of ABTS absorption relative to the control was calculated. A percent inhibition vs. antioxidant concentration graph was plotted and the concentration of the antioxidant that suppresses the optical density of the ABTS radical by 50% (EC50) was determined. The Trolox Equivalent Antioxidant Capacity (TEAC) was also calculated.

Series [2] concerns PC-3 cells. The settings on record: for Olive Moment / Tail Area / Tail DNA % / Tail Intensity / Tail Length / Tail Moment: 3 days; for DNA breaks in the Comet assay (in words): PC-3, 72 h.
Method: PC-3 and MCF-7 cells were seeded into 6-well plates at a concentration of 15,000 cells/mL. […] Cells were trypsinized and washed, then placed in 0.7% low melting point agarose and mounted on glass slides (200 000 cells/sample). Slides were treated with lysis solution (2.5 M NaCl, 0.1 M disodium EDTA, 1% Triton X-100, 10 mM Tris base, 10% DMSO, pH 10) for 1 h at 4 °C. Next, the samples were placed in an alkaline solution (12 g of NaOH brought to 1 L with water, disodium EDTA 0.2 M, pH >13) and incubated for 30 min at room temperature. Afterward, the slides were washed with electrophoresis 1X TBE buffer (10X TBE: 9.3 g disodium salt EDTA, 108 g Tris base, and 55 g boric acid per 1 L of water) twice and placed in the electrophoresis chamber. Electrophoresis was carried out under neutral conditions in 1X TBE buffer for 30 min at 31 V (at the rate of 1 V/cm). Afterward, the slides were washed in PBS (Ca free, Mg free) 2 times for 5 min, fixed in 96% ethanol for 5 min, and dried. Before analysis, 50 μL of SYBR Green solution (1μL stock + 10 mL TE buffer) was applied to the slides. Using an Observer Z1 fluorescent optical microscope (Carl Zeiss, Jena, Germany), photographs of cells were taken and analyzed in the ImageJ program (Plugin OpenComet).
“Tail moment” (TM) and “Olive moment” (OTM) were calculated using the following formula:(1) TM=(Fluor in tail/Fluor total )×tail lenght (2) OTM=(Tail mean−Head mean)×(Tail DNA %)/100.
Series [3] has as its system porcine neuronal tubulin. Nature of the series: Tubulin polymerization assay (Cytoskeleton kit). The settings on record: effector 10 µM; for Maximum Initial Rate of Polymerization V Max: tubulin 3 mg/mL, 37 °C. It counts as biochemical. As to the method:
To assess the effect of the test compounds on tubulin polymerization, a test kit from Cytoskeleton was used. The plate was pre-warmed to 37 °C for 20 min before starting the assay. Then, 10 µL of the compound of interest, at a 10-fold concentration in an assay buffer, was pipetted into the plate. For comparison, paclitaxel, a polymerization enhancer, and vinblastine, a tubulin polymerization inhibitor, were used. Both effectors were used at a concentration of 10 µM. The assay buffer served as a control. The plate was then incubated at 37 °C for 2 min, after which 100 µL of the diluted tubulin solution (containing 3 mg/mL of tubulin in 80 mM PIPES pH 6.9, 2 mM MgCl2, 0.5 mM EGTA, 1 mM GTP, and 7% glycerol) was added. The plate was then immediately placed in the plate reader. Absorbance was measured at 340 nm every minute for 61 readings on a Varioskan LUX (Thermo Scientific, Waltham, MA, USA) plate reader.

The subject of series [4] is MCF-7 cells. Nature of the series: Cell cycle analysis, Hoechst 33342 flow cytometry. It counts as cell-based, human. The settings on record: MCF-7, 72 h. The method, then:
MCF-7 cells were seeded at a density of 15,000 cells/mL in a 6-well plate in 3 mL of complete medium. After 24 h, the medium was replaced with one containing the studied compounds and incubated for 72 h. After incubation, cells were stained with Hoechst 33342 (Roche, Basel, Switzerland) at a concentration of 6 μg/mL for 30 min in the CO2 incubator. The nutrient medium over cells containing the floating cells was collected into tubes, and then the remaining adherent cells were trypsinized and added to the tubes with the floating cells. After this, cells were centrifuged and washed with a DPBS buffer. The fluorescence intensity of cells was measured using the flow cytofluorimeter BD FACSCalibur™ (BD Biosciences, Franklin Lakes, NJ, USA). To identify single cells, direct scatter (FS) and side scatter (SS) measurements were used, and cell doublets were excluded from the analysis using pulse processing based on the area-to-pulse width ratio.

Series [5] can be described thus: MTS cytotoxicity assay. The settings on record: human. The source says:
The study utilized human cell lines including PC-3 (human prostate adenocarcinoma), HSF (primary human skin fibroblasts), MDA-MB-231 (estrogen-negative breast adenocarcinoma), MCF-7 (estrogen-positive breast adenocarcinoma), MSC (multipotent stem cells derived from adipose tissue), SF-539 (brain gliosarcoma), SNB-19 (glioblastoma), A-498 (kidney carcinoma), M-14 (human melanoma), NCI-H322-M (primary bronchioalveolar carcinoma), HCT-15 (colon adenocarcinoma), and HCT-116 (colorectal intestinal carcinoma). We also used immortalized C2C12 mouse myoblasts (ATCC—CRL-1772). Cancer cell lines were obtained from the ATCC collection and generously provided by the Fox Chase Cancer Center (Philadelphia, USA). Conditionally normal cells, including skin fibroblasts and multipotent stem cells, were isolated by our group from postoperative materials (skin and subcutaneous fat) obtained from a conditionally healthy donor. Reagents and consumables for cell culture work were purchased from PanEco (Russia).
The cytotoxicity of the compounds under study was assessed using MTS assay on cell cultures. Cells were seeded into 96-well plates at a concentration of 10,000–20,000 cells/mL. […] After 2 h of incubation, the resulting water-soluble formazan was measured using the TECAN Infinite M200 Pro microplate reader at wavelengths of 555/750 nm. […]
(Tetrazolium dyes change colour on reduction, which living cells bring about.)

Like-named read-outs stand apart in the source and are kept apart here.

On to `COc1cccc2c1C(=O)c1c(O)c3c(c(O)c1C2=O)CC(O)(C(=O)CO)CC3OC1CC(NC(=O)c2cnc(C)c3c2COC(C)(C)O3)C(O)C(C)O1` (stereo not drawn) [DOX-1, N-(3-hydroxy-2-methyl-6-((3,5,12-trihydroxy-3-(2-hydroxyacetyl)-10-methoxy-6,11-dioxo-1,2,3,4,6,11-hexahydrotetracen-1-yl)oxy)tetrahydro-2H-pyran-4-yl)-2,2,8-trimethyl-4H-[1,3]dioxino[4,5-c]pyridine-5-carboxamide], for which the melting point was 165 to 167 °C (dec.). In series [1], the EC50 was 4.5 ± 0.5 µM and the “Trolox Equivalent Antioxidant Capacity (TEAC)” value came out at 3.49. For the same compound, in series [2] (PC-3, 3 µM (IC25)), the “Olive Moment” value turned out to be 2.48, the “Tail Area” value is listed as 1094, the “Tail DNA %” value amounted to 6.7% and the “Tail Intensity” value is reported as 34. Besides, in series [2] (PC-3, 3 µM (IC25)), the “Tail Length” value came to 10 and the “Tail Moment” value is 1.07. Further, in series [2] (PC-3, 6.1 µM (IC50)), the “Olive Moment” value came to 2.24, the “Tail Area” value came out at 1196, the “Tail DNA %” value turned out to be 6.7% and the “Tail Intensity” value is given as 30. In series [2] (PC-3, 6.1 µM (IC50)), the “Tail Length” value came out at 17 and the “Tail Moment” value is on record as 1.36. For the same compound, in series [2] (PC-3, 11.3 µM (IC70)), the “Olive Moment” value is 3.79, the “Tail Area” value is given as 1403, the “Tail DNA %” value is 11.4% and the “Tail Intensity” value amounted to 37. Besides, in series [2] (PC-3, 11.3 µM (IC70)), the “Tail Length” value stood at 12 and the “Tail Moment” value worked out at 1.87. Besides, the “DNA breaks in the Comet assay (in words)” value in series [2] is given as “do not cause DNA breaks”. In series [3], the “Impact on tubulin polymerization (in words)” value (shortened to “Impact”) is listed as “no statistically significant impact” and the “Maximum Initial Rate of Polymerization V Max” value (from here on “Maximum Initial Rate”) is on record as 5.5 mOD/Min.
As for `COc1cccc2c1C(=O)c1c(O)c3c(c(O)c1C2=O)CC(O)(C(=O)CO)CC3OC1CC(NC(=O)/C=C/c2cnc(C)c3c2COC(C)(C)O3)C(O)C(C)O1` (stereo not drawn) [DOX-2, (E)-N-(3-hydroxy-2-methyl-6-((3,5,12-trihydroxy-3-(2-hydroxyacetyl)-10-methoxy-6,11-dioxo-1,2,3,4,6,11-hexahydrotetracen-1-yl)oxy)tetrahydro-2H-pyran-4-yl)-3-(2,2,8-trimethyl-4H-[1,3]dioxino[4,5-c]pyridin-5-yl)acrylamide], the melting point was 175 to 176 °C (dec.). Moreover, in series [1], the EC50 is 18.9 ± 6.8 µM and the “Trolox Equivalent Antioxidant Capacity (TEAC)” value worked out at 0.83. For the same compound, the “Effect on the cell cycle (in words)” value in series [4] is recorded as “cell-cycle arrest in the G2M phase”. Moreover, in series [5], the IC50 at 72 h is more than 200 µM. In series [3], the “Impact” value is reported as “no statistically significant impact” and the “Maximum Initial Rate” value is given as 6.8 mOD/Min.
Turning to `COc1cccc2c1C(=O)c1c(O)c3c(c(O)c1C2=O)C[C@@](O)(C(=O)CO)C[C@@H]3O[C@H]1C[C@H](N)[C@H](O)[C@H](C)O1` [DOX, Doxorubicin, reference compound], in series [1], the EC50 came to 6.7 ± 0.7 µM and the “Trolox Equivalent Antioxidant Capacity (TEAC)” value was determined as 2.34. Further, in series [2] (PC-3, 0.5 µM (IC25)), the “Olive Moment” value is listed as 8.13, the “Tail Area” value was 2215, the “Tail DNA %” value was determined as 22.7% and the “Tail Intensity” value turned out to be 66. In addition, the “Tail Length” value in series [2] (PC-3, 0.5 µM (IC25)) stood at 51. In series [2] (PC-3, 1.1 µM (IC50)), the “Olive Moment” value came out at 11.64, the “Tail Area” value stood at 1902, the “Tail DNA %” value worked out at 35.2% and the “Tail Intensity” value stood at 74. Further, in series [2] (PC-3, 1.1 µM (IC50)), the “Tail Length” value was found to be 51. In addition, the “DNA breaks in the Comet assay (in words)” value in series [2] is listed as “induces DNA breaks”. Moreover, the “Effect on the cell cycle (in words)” value in series [4] is listed as “cell-cycle arrest in the G2M phase”. The half-maximal inhibitory concentration (IC50) at 72 h in series [5] (MSC multipotent stem cells derived from adipose tissue) came out at 1.1 ± 0.65 µM. Moreover, in series [3], the “Impact” value is recorded as “no statistically significant impact” and the “Maximum Initial Rate” value was determined as 5.5 mOD/Min.
